Values quoted from earlier work, collected in publication PMC3273554 (Molecular Pharmaceutics, 2011).

What was measured:
HLA-A201 = settings: 100µg (63.8nmol) with 50µg PADRE T helper epitope in IFA
T cells = settings: intracellular IFN-γ staining
B16F10 = settings: delivered with poly(I:C) and anti-CD40, boosted; prophylactic B16F10 model

For SMYDFFVWL [Trp2 2M], the “IFN-γ elicited compared to vaccination with wild type peptide” value (HLA-A201) is listed as “higher amounts of IFN-γ”.

For `CCCS(=O)(=O)Nc1ccc(F)c(C(=O)c2c[nH]c3ncc(-c4ccc(Cl)cc4)cc23)c1F` [vemurafenib], the “Response rate in trials” value (melanoma, BRAF V600E) is given as no more than 81%.

For SIYDFFVWL [deltaV], the “T cell responsiveness to Trp2” value (T cells) is listed as “increased T cell responsiveness” and the “Tumor growth delay compared to wild type peptide” value (B16F10) is listed as “no increased growth delay”.
